Measured values as given in US9840510B1, “Pyrazolo[1,5-a]pyrimidinyl carboxamide compounds and their use in the treatment of medical disorders” (Lysosomal Therapeutics Inc., priority 2016, dated 2017).
In brackets after ≈: the same amount, converted by molar mass.

assay: Compound solubility in water; assay type: physicochemical

Row | solubility | SMILES
1 | 32.8 µg/mL (≈ 77.3 µM) | Cc1cc(N2CCN(C(C)C)C2=O)nc2c(C(=O)N[C@H](C3CC3)C(F)(F)F)cnn12 [III-327]
2 | 0.3 µg/mL (≈ 0.735 µM) | Cc1cc(-c2nnc(C(C)C)o2)nc2c(C(=O)N[C@H](C3CC3)C(F)(F)F)cnn12 [III-391]
3 | 0.2 µg/mL (≈ 0.452 µM) | Cc1cc(-c2cccc(-c3ncon3)c2)nc2c(C(=O)NC(C3CC3)C(F)(F)F)cnn12 (stereo not shown) [III-176]
4 | 0.4 µg/mL (≈ 0.999 µM) | Cc1cc(-c2ccc(C#N)nc2)nc2c(C(=O)N[C@H](C3CC3)C(F)(F)F)cnn12 [III-367]
5 | 0.8 µg/mL (≈ 1.95 µM) | Cc1cc(-c2ccc(Cl)nc2)nc2c(C(=O)N[C@H](C3CC3)C(F)(F)F)cnn12 [III-117]
6 | 1 µg/mL (≈ 2.4 µM) | Cc1cc(N2CCCC(F)(F)C2)nc2c(C(=O)N[C@@H](C3CC3)C(F)(F)F)cnn12 [III-95]
7 | 5.1 µg/mL (≈ 15.9 µM) | Cc1cc(-c2ccccc2)nc2c(C(=O)N[C@@H](C)C3CC3)cnn12 [III-136]
8 | 1.8 µg/mL (≈ 4.62 µM) | Cc1cncc(-c2cc(C)n3ncc(C(=O)N[C@H](C4CC4)C(F)(F)F)c3n2)c1 [III-276]
9 | 2.1 µg/mL (≈ 5.12 µM) | Cc1cc(-c2ncccc2Cl)nc2c(C(=O)NC(C3CC3)C(F)(F)F)cnn12 (stereo not shown) [III-206]
10 | 0.1 µg/mL (≈ 0.24 µM) | Cc1cc(-c2ccc(F)cc2C#N)nc2c(C(=O)NC(C3CC3)C(F)(F)F)cnn12 (stereo not shown) [III-151]
11 | 10.4 µg/mL (≈ 27.7 µM) | Cc1cc(-c2cccnc2)nc2c(C(=O)N[C@@H](C3CC3)C(F)(F)F)cnn12 [III-89]
12 | 10.2 µg/mL (≈ 30.7 µM) | Cc1cc(Cl)nc2c(C(=O)NC(C3CC3)C(F)(F)F)cnn12 (stereo not shown) [III-45]
13 | 2.3 µg/mL (≈ 5.82 µM) | Cc1cc(-c2cc(C)n3ncc(C(=O)NC(C4CC4)C(F)(F)F)c3n2)sn1 (stereo not shown) [III-214]
14 | 2.5 µg/mL (≈ 6.36 µM) | Cc1cc(-c2cncc(F)c2)nc2c(C(=O)N[C@@H](C3CC3)C(F)(F)F)cnn12 [III-127]
15 | 14.6 µg/mL (≈ 38.8 µM) | Cc1cc(-c2ccnnc2)nc2c(C(=O)NC(C3CC3)C(F)(F)F)cnn12 (stereo not shown) [III-325]
16 | 0.6 µg/mL (≈ 1.65 µM) | Cc1cc(-c2ccco2)nc2c(C(=O)NC(C3CC3)C(F)(F)F)cnn12 (stereo not shown) [III-186]
17 | 1.6 µg/mL (≈ 4.58 µM) | Cc1cc(-c2ccccn2)nc2c(C(=O)NC(C)C(F)(F)F)cnn12 (stereo not shown) [III-50]

The remaining lines, values behind:

Row | SMILES | solubility
18 | CCCCO[C@H]1CC[C@H](NC(=O)c2cnn3c(C)cc(-c4cncc(Cl)c4)nc23)CC1 [III-293] | 0.3 µg/mL (≈ 0.679 µM)
19 | Cc1cc(-c2ccc3ocnc3c2)nc2c(C(=O)NC(C)C(F)(F)F)cnn12 (stereo not shown) [III-169] | 1.6 µg/mL (≈ 4.11 µM)
20 | COc1c(F)cccc1-c1cc(C)n2ncc(C(=O)NC(C)C(F)(F)F)c2n1 (stereo not shown) [III-140] | 1.1 µg/mL (≈ 2.78 µM)
21 | Cc1cc(N2CCCN(C(C)C)C2=O)nc2c(C(=O)NC(C)(C)C)cnn12 [III-258] | 26.4 µg/mL (≈ 70.9 µM)
22 | Cc1cc(-c2cccc(F)c2)nc2c(C(=O)NC(C)(C)C(F)(F)F)cnn12 [III-80] | 0.2 µg/mL (≈ 0.526 µM)
23 | Cc1cc(C)n2nc(Cl)c(C(=O)N[C@@H](C)C3CC3)c2n1 [III-34] | 10.3 µg/mL (≈ 35.2 µM)
24 | Cc1cc(-c2cncc(C(F)(F)F)c2)nc2c(C(=O)NC(C)C(F)(F)F)cnn12 (stereo not shown) [III-285] | 1.2 µg/mL (≈ 2.88 µM)
25 | COc1cc(F)ccc1-c1cc(C)n2ncc(C(=O)N[C@@H](C)C3CC3)c2n1 [III-146] | 0.9 µg/mL (≈ 2.44 µM)
26 | Cc1cc(-c2ccc3c(c2)OCO3)nc2c(C(=O)NC(C)C(F)(F)F)cnn12 (stereo not shown) [III-289] | 0.8 µg/mL (≈ 2.04 µM)
27 | C#CC(C)(C)NC(=O)c1cnn2c(C)cc(-c3ccns3)nc12 [III-412] | 3.7 µg/mL (≈ 11.4 µM)
28 | Cc1cc(C)n2ncc(C(=O)NC(C)(C)C3CC3)c2n1 [III-2] | 27.4 µg/mL (≈ 101 µM)
29 | COc1ccc(F)cc1-c1cc(C)n2ncc(C(=O)NC(C)C(F)(F)F)c2n1 (stereo not shown) [III-194] | 0.4 µg/mL (≈ 1.01 µM)
30 | COCc1cc(-c2ccc(F)cc2)nc2c(C(=O)N[C@@H](C)C3CC3)cnn12 [III-46] | 3.4 µg/mL (≈ 9.23 µM)
31 | COc1cc(F)ccc1-c1cc(C)n2ncc(C(=O)NC(C)C(F)(F)F)c2n1 (stereo not shown) [III-150] | 0.7 µg/mL (≈ 1.77 µM)
32 | Cc1cc(C)n2ncc(C(=O)NC(C)(C)C3CC4(CCC4)C3)c2n1 [III-13] | 0.3 µg/mL (≈ 0.919 µM)
33 | Cc1cc(-c2cncc(Cl)c2)nc2c(C(=O)N[C@@H](C)C3CC3)cnn12 [III-290] | 2.1 µg/mL (≈ 5.9 µM)
34 | Cc1cc(-c2ccc(F)c(C#N)c2)nc2c(C(=O)N[C@@H](C)C3CC3)cnn12 [III-157] | 2.9 µg/mL (≈ 7.98 µM)
